Experimental data as given in ChEMBL document CHEMBL1201862, “PubChem BioAssay data set” (2004).
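96-well plates; 48 h exposure; 5 concentrations. Endpoints by linear interpolation between flanking doses. Not reached: highest tested concentration assigned. GI50 = concentration required for 50% inhibition of growth.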 Activity calls are given as the source filed them. Rule as the data show it: active = GI50 up to about 1.1 µM and inactive = higher.

Columns and labels:
Experiment in all cases: growth of human tumour cells (NCI), 48 h
SNB-19 = system: SNB-19
NCI-H226 = system: NCI-H226
HCT-15 = system: HCT-15
RPMI-8226 = system: RPMI-8226
HT-29 = system: HT-29
NCI-H522 = system: NCI-H522
BT-549 = system: BT-549
UO-31 = system: UO-31
RXF 393 = system: RXF 393
Malme-3M = system: Malme-3M
HOP-62 = system: HOP-62
HL-60 = system: HL-60
IGROV-1 = system: IGROV-1
A498 = system: A498
HOP-92 = system: HOP-92
SF-295 = system: SF-295
OVCAR-5 = system: OVCAR-5
NCI/ADR-RES = system: NCI/ADR-RES
LOX IMVI = system: LOX IMVI

| SMILES | GI50 (SNB-19) | GI50 (NCI-H226) | GI50 (HCT-15) [µM] | GI50 (RPMI-8226) | GI50 (HT-29) | GI50 (NCI-H522) | GI50 (BT-549) | GI50 (UO-31) | GI50 (RXF 393) | GI50 (Malme-3M) | GI50 (HOP-62) | GI50 (HL-60) | GI50 (IGROV-1) | GI50 (A498) | GI50 (HOP-92) | GI50 (SF-295) | GI50 (OVCAR-5) | GI50 (NCI/ADR-RES) | GI50 (LOX IMVI) |
| --- | --- | --- | --- | --- | --- | --- | --- | --- | --- | --- | --- | --- | --- | --- | --- | --- | --- | --- | --- |
| CC1(C)COC(c2ccccc2-c2ccccc2)=N1 | 71.6 µM (inactive) | > 100 µM (inactive) | > 100 | > 100 µM (inactive) | 83 µM (inactive) | 38.7 µM (inactive) | > 100 µM (inactive) | 67.6 µM (inactive) | 70.5 µM (inactive) | > 100 µM (inactive) | > 100 µM (inactive) | > 100 µM (inactive) | 67.8 µM (inactive) | > 100 µM (inactive) | > 100 µM (inactive) | 53.7 µM (inactive) | > 100 µM (inactive) | > 100 µM (inactive) | – |
| CCN(C(=O)N[C@H](C(=O)N[C@@H](CSC)C(=O)N[C@@H](C)C(=O)OC)C(C)C)c1ccccc1 | 19.3 µM (inactive) | 16.3 µM (inactive) | 17.8 | – | 13.2 µM (inactive) | 10.2 µM (inactive) | 18.1 µM (inactive) | 17.5 µM (inactive) | 17.7 µM (inactive) | 12.8 µM (inactive) | 19.8 µM (inactive) | – | 10.4 µM (inactive) | – | 12.8 µM (inactive) | 17.9 µM (inactive) | 15.5 µM (inactive) | > 100 µM (inactive) | 10.4 µM (inactive) |
| O=C(N[C@H](CO)[C@H](O)c1ccc([N+](=O)[O-])cc1)C(Cl)Cl [CHLORAMPHENICOL] | > 100 µM (inactive) | > 100 µM (inactive) | > 100 | > 100 µM (inactive) | > 100 µM (inactive) | > 100 µM (inactive) | > 100 µM (inactive) | > 100 µM (inactive) | > 100 µM (inactive) | > 100 µM (inactive) | > 100 µM (inactive) | > 100 µM (inactive) | > 100 µM (inactive) | > 100 µM (inactive) | 85.3 µM (inactive) | > 100 µM (inactive) | > 100 µM (inactive) | > 100 µM (inactive) | > 100 µM (inactive) |
| CCOC(=O)C1C(=O)CC(C)(O)C(C(=O)OCC)C1c1ccc(O)c(OC)c1 (stereo unspecified) | > 100 µM (inactive) | > 100 µM (inactive) | > 100 | – | > 100 µM (inactive) | > 100 µM (inactive) | > 100 µM (inactive) | > 100 µM (inactive) | > 100 µM (inactive) | > 100 µM (inactive) | > 100 µM (inactive) | > 100 µM (inactive) | > 100 µM (inactive) | > 100 µM (inactive) | > 100 µM (inactive) | > 100 µM (inactive) | > 100 µM (inactive) | > 100 µM (inactive) | > 100 µM (inactive) |
| N/C(=N\n1c(=S)[nH]c2ccccc2c1=O)Nn1c(=S)[nH]c2ccccc2c1=O | 88.3 µM (inactive) | 21.7 µM (inactive) | 22.6 | 22.4 µM (inactive) | – | 13.3 µM (inactive) | 20.3 µM (inactive) | 14.3 µM (inactive) | 35.3 µM (inactive) | 20.5 µM (inactive) | 36.4 µM (inactive) | – | 28.9 µM (inactive) | > 100 µM (inactive) | – | > 100 µM (inactive) | 80.4 µM (inactive) | 47.6 µM (inactive) | 18.8 µM (inactive) |
| COc1ccc(/C=N/n2c(Cc3ccc(Cl)cc3)n[nH]c2=O)cc1 | 15.7 µM (inactive) | 36.2 µM (inactive) | 38 | > 100 µM (inactive) | 13.6 µM (inactive) | – | 32.4 µM (inactive) | > 100 µM (inactive) | 16.8 µM (inactive) | – | 15.2 µM (inactive) | – | 16 µM (inactive) | 39.3 µM (inactive) | 17.3 µM (inactive) | 19.8 µM (inactive) | 29.5 µM (inactive) | 32.8 µM (inactive) | – |
| N#CC(C#N)/N=N/c1ccc(-c2nc3ccccc3s2)cc1 | – | – | 3.59 | 1.51 µM (inactive) | 6.64 µM (inactive) | 2.65 µM (inactive) | 5.19 µM (inactive) | 7.46 µM (inactive) | 4.23 µM (inactive) | 3.15 µM (inactive) | – | – | 6 µM (inactive) | 11.1 µM (inactive) | 1.48 µM (inactive) | – | 28 µM (inactive) | 3.54 µM (inactive) | 7 µM (inactive) |
